US9453226B2, “Protection of cells from Alu-RNA-induced degeneration and inhibitors for protecting cells” (UNIVERSITY OF KENTUCKY RESEARCH FOUNDATION, priority 2011, dated 2016)
“Also recorded” adds a separate entry of the source. d = 2'-deoxy (DNA); r = 2'-OH (RNA)

How the values were obtained:
[1] = test system: NLRP3 and IL18 mRNAs; experiment: NLRP3 and IL18 mRNA in human RPE cells (real-time RT-PCR); type: cell-based
Source text: Transcript abundance was quantified by real-time RT-PCR using an Applied Biosystems 7900 HT Fast Real-Time PCR system by the 2^−ΔΔCt method.
(§1) Total RNA was extracted from tissues or cells using Trizol reagent (Invitrogen) according to manufacturer's recommendations, DNase treated and reverse transcribed (QuantiTect, Qiagen). The RT products (cDNA) were amplified by real-time quantitative PCR (Applied Biosystems 7900 HT Fast Real-Time PCR system) with Power SYBR green Master Mix. Oligonucleotide primers specific for human IL1B (forward 5′-[…]-3′ and reverse 5′-[…]-3′), human IL18 (forward 5′-[…]-3′ and reverse 5′-[…]-3′), human NLRP3 (forward 5′-[…]-3′ and reverse 5′-[…]-3′), human PYCARD (forward 5′-[…]-3′ and reverse 5′-[…]-3′), human VDAC1 (forward 5′-[…]-3′ and reverse 5′-[…]-3′), human VDAC2 (forward 5′-[…]-3′ and reverse 5′-[…]-3′), human VDAC3 (forward 5′-[…]-3′ and reverse 5′-[…]-3′), human 18S rRNA (forward 5′-[…]-3′ and reverse 5′-[…]-3′), mouse Myd88 (forward 5′-[…]-3′ and reverse 5′-[…]-3′), mouse Nlrp3 (forward 5′-[…]-3′ and reverse 5′-[…]-3′), mouse Il18 (forward 5′-[…]-3′ and reverse 5′-[…]-3′), and mouse 18S rRNA (forward 5′-[…]-3′ and reverse 5′-[…]-3′) were used. The QPCR cycling conditions were 50° C. for 2 min, 95° C. for 10 min followed by 40 cycles of a two-step amplification program (95° C. for 15 s and 58° C. for 1 min). At the end of the amplification, melting curve analysis was applied using the dissociation protocol from the Sequence Detection system to exclude contamination with unspecific PCR products. […] For negative controls, no RT products were used as templates in the QPCR and verified by the absence of gel-detected bands. Relative expressions of target genes were determined by the 2^−ΔΔCt method.

[2] = test system: mitochondrial ROS; experiment: Mitochondrial ROS in human RPE cells (MitoSOX Red); type: cell-based
Experimental: Cellular ROS production was assessed using the ROS-specific probe 2′7′-dichlorodihydrofluorescin diacetate (H2DCFDA, BioChemica, Fluka). Mitochondrial ROS production was assessed using MitoSOX™ Red (Invitrogen). Sub-confluent human RPE cells were transfected with pNull or pAlu. After 24 h cells were loaded for 10 min at 37° C. with 10 μM H2DCFDA or MitoSOX™ Red (Invitrogen) mitochondrial superoxide indicator for live-cell imaging and washed twice with PBS. For H2DCFDA, fluorescence was recorded in 96-well plate using with a Synergy 4 reader (Biotek) using a FITC filter (excitation 485 nm, emission 538 nm). To visualize respiring mitochondria for colocalization with the mitochondrial ROS signal, after PBS wash cells were incubated with MitoTracker Deep Red™ (Invitrogen) for 30 min at 37° C. and then washed twice with PBS. The fluorescent signals were detected using Leica SP-5 or Zeiss Axio Observer Z1 microscopes. Phagosomal ROS production was assessed using the Fc-OXYBURST Green™ assay (Invitrogen). Sub-confluent human RPE cells were transfected with pNull or pAlu, or treated with PMA (0.5 μg/ml; Sigma-Aldrich). […] The total fluorescence from the cells was measured immediately after adding Fc-OXYBURST Green™ with a Synergy 4 reader (Biotek) using FITC filter (excitation 485 nm, emission 538 nm).

[3] = test system: VDAC2; experiment: VDAC2 mRNA knockdown in human RPE cells; type: cell-based; conditions: compared to control (Luc) siRNA
Source text: as §1, with “used.” for “used. The QPCR cycling conditions were 50° C. for 2 min, 95° C. for 10 min followed by 40 cycles of a two-step amplification program (95° C. for 15 s and 58° C. for 1 min). At the end of the amplification, melting curve analysis was applied using the dissociation protocol from the Sequence Detection system to exclude contamination with unspecific PCR products.”

[4] = test system: VDAC3; experiment: VDAC3 mRNA knockdown in human RPE cells; type: cell-based; conditions: compared to control (Luc) siRNA
Source text: as §1, with “used.” for “used. The QPCR cycling conditions were 50° C. for 2 min, 95° C. for 10 min followed by 40 cycles of a two-step amplification program (95° C. for 15 s and 58° C. for 1 min). At the end of the amplification, melting curve analysis was applied using the dissociation protocol from the Sequence Detection system to exclude contamination with unspecific PCR products.”

[5] = test system: human RPE cells; conditions: human RPE cells transfected with pAlu
Experimental: All cell cultures were maintained at 37° C. and 5% CO2. Primary mouse RPE cells were isolated as previously described (Yang et al., 2009) and grown in Dulbecco Modified Eagle Medium (DMEM) supplemented with 20% FBS and standard antibiotics concentrations. Primary human RPE cells were isolated as previously described (Yang et al., 2008) and maintained in DMEM supplemented with 10% FBS and antibiotics. HeLa cells were maintained in DMEM supplemented with 20% FBS and standard antibiotics concentrations. THP-1 cells were cultured in RPMI 1640 medium supplemented with 10% FBS and antibiotics.
MTS assays were performed using the CellTiter 96 AQueous One Solution Cell Proliferation Assay (Promega) according to the manufacturer's instructions. For examining the cytoprotective effect of glycine in Alu RNA induced cell death, human RPE cells were transfected with pNull/pAlu. At 6 h post-transfection the cells were incubated with complete media containing glycine (5 mM) or vehicle, and cell viability was assessed after 24 h. Similarly, human RPE cells primed with LPS (5 μg/ml for 6 h) were treated with ATP (25 μM) in the presence of glycine containing media (5 mM). 30 min post ATP cell viability was assessed as described above.
MTS assays were performed using the CellTiter 96 AQueous One Solution Cell Proliferation Assay (Promega) according to the manufacturer's instructions.

[6] = test system: PYCARD; experiment: PYCARD knockdown in human RPE cells; type: cell-based; conditions: compared to control siRNAs
Experimental: (§2) Tissues or cells were homogenized in lysis buffer (10 mM Tris base, pH 7.4, 150 mM NaCl, 1 mM EDTA, 1 mM EGTA, 1% Triton X-100, 0.5% NP-40, protease and phosphatase inhibitor cocktail (Roche)). Protein concentrations were determined using a Bradford assay kit (Bio-Rad) with bovine serum albumin as a standard. Proteins (40-100 μg) were run on NuPAGE Bis-Tris gels (Invitrogen) and transferred to Immun-Blot PVDF membranes (Bio-Rad). Cells were scraped in hot Laemmli buffer (62.5 mM Tris base, pH 6.8, 2% SDS, 5% 2-Mercaptoethanol, 10% Glycerol, 0.01% Bromophenol Blue). Samples were boiled and run on 4-20% NuPAGE Tris-Glycine gels (Invitrogen). The transferred membranes were blocked for 1 h at RT and incubated with antibodies against human Caspase-1 (1:500; Invitrogen), mouse Caspase 1 (1:500; MBL), NLRP3 (1:1000; Enzo Life Sciences), PYCARD (1:1000, RayBiotech), phospho-IRAK1 (S376) (1:500, Thermo Scientific), phospho-IRAK4 (T345) (1:500, AbboMax), DICER1 (1:2,000; Bethyl), MyD88 (1:1,000; Cell Signaling), and mouse IL-18 (1:200; MBL) at 4° C. overnight. Protein loading was assessed by immunoblotting using an anti-Vinculin antibody (1:1,000; Sigma-Aldrich). The secondary antibodies were used (1:5,000) for 1 h at RT. The signal was visualized by enhanced chemiluminescence (ECL plus) and captured by VisionWorksLS Image Acquisition and Analysis software (Version 6.7.2, UVP, LLC).

[7] = test system: VDAC1; experiment: VDAC1 mRNA knockdown in human RPE cells; type: cell-based; conditions: compared to control (Luc) siRNA
Source text: as §1, with “used.” for “used. The QPCR cycling conditions were 50° C. for 2 min, 95° C. for 10 min followed by 40 cycles of a two-step amplification program (95° C. for 15 s and 58° C. for 1 min). At the end of the amplification, melting curve analysis was applied using the dissociation protocol from the Sequence Detection system to exclude contamination with unspecific PCR products.”

[8] = test system: RPE; experiment: Alu RNA-induced RPE degeneration in wild-type mice, inhibitors given intravitreously; type: in vivo; conditions: subretinal Alu RNA 1 μg; peptide 2 μg intravitreous
[9] = test system: NLRP3; experiment: NLRP3 knockdown in HEK293 cells transfected with an NLRP3 expression vector; type: cell-based; conditions: compared to control siRNAs
Experimental: as §2

[10] = test system: IRAK1/4 phosphorylation; experiment: IRAK1/4 phosphorylation in human RPE cells (Western blot); type: cell-based; conditions: human RPE cells treated with DICER1 antisense
Experimental: (§3) Protein abundance was assessed by Western blot analysis using antibodies against Caspase-1 (1:500; Invitrogen), pIRAK1 (1:500; Thermo Scientific), pIRAK4 (1:500, Abbomax), PYCARD (1:200, Santa Cruz Biotechnology), NLRP3 (1:500, Enzo Life Sciences) and Vinculin (1:1,000; Sigma-Aldrich). Caspase-1 activity was visualized using Caspalux1 E1D2 (Oncolmmunin) according to manufacturer's instructions.
as §2

[11] = molecular target: T1, Caspase-1 (Homo sapiens, UniProt P29466); experiment: Caspase-1 activation in human RPE cells (Western blot p20, Caspalux substrate cleavage); type: cell-based; conditions: compared to control AS
T1 construct: Primary human RPE cells were isolated as previously described; endogenous in cells; host or cells: primary human RPE cells
T1 sequence (P29466 120-297 limits assumed): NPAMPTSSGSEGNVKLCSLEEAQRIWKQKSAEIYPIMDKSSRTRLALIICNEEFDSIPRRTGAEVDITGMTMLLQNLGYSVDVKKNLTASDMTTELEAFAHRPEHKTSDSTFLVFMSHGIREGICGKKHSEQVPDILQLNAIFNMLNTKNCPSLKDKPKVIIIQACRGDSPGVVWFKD
T1 sequence (P29466 317-404 limits assumed): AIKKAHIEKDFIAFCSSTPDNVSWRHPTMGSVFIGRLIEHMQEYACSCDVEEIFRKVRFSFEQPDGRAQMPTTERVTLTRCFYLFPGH
Experimental: as §3, §2
Caspase-1 activity. Caspase-1 activity was visualized by incubating cells with Caspalux1E1D2 reagent (Oncolmmunin) according to the manufacturer's instructions. Caspalux1E1D2 signal was quantified reading the fluorescence (excitation 552 nm, emission 580 nm) using a Synergy 4 reader (Biotek). Quantification of fluorescence from images was performed by converting images into grayscale in Adobe Photoshop CSS, and measuring the integrated density of black and white images using ImageJ software (NIH) (Bogdanovich et al., 2008).

[12] = test system: DICER1; experiment: DICER1 abundance after antisense treatment of human RPE cells; type: cell-based
Experimental: as §2

With “5′-CCCUGGAGUUGGAGGCUdTdT-3′ [VDAC2 siRNA]” the “pAlu-induced NLRP3 and IL18 mRNA upregulation” value [1] was “prevent; also recorded: impaired”, the “pAlu-induced mitochondrial ROS generation” value [2] was “prevent; also recorded: impaired” and the “abundance of VDAC2 mRNA” value [3] was “reduced”.
“5′-GCUUUAAUCGAUGGGAAdTdT-3′ [VDAC3 siRNA]” was tested, and the “abundance of VDAC3 mRNA” value [4] was “reduced”.
“5′-GAAGCUCUUCAGUUUCAdTdT-3′ (GAAGCUCUUCAGUUUCATT; siRNA; sugars from the 5' end r17 d2, backbone not given here) [PYCARD siRNA]” was tested, and the “pAlu-induced human RPE cell death / loss of cell viability” value [5] was “rescued” and the “abundance of PYCARD” value [6] was “reduced”.
With “5′-CGGAAUAGCAGCCAAGUdTdT-3′ [VDAC1 siRNA]” the “pAlu-induced NLRP3 and IL18 mRNA upregulation” value [1] was “prevent; also recorded: impaired”, the “pAlu-induced mitochondrial ROS generation” value [2] was “prevent; also recorded: impaired” and the “abundance of VDAC1 mRNA” value [7] was “reduced”.
For DRQIKIWFQNRRMKWKKRDVLPGTCVWSIASE, the “Alu RNA-induced RPE degeneration” value [8] was “blocked”.
With “5′-GUUUGACUAUCUGUUCUdTdT-3′ (GUUUGACUAUCUGUUCUTT; siRNA; sugars from the 5' end r17 d2, backbone not given here) [NLRP3 siRNA]” the “pAlu-induced human RPE cell death / loss of cell viability” value [5] was “rescued” and the “abundance of NLRP3” value [9] was “reduced”.
In the case of 5′-GCUGACCTTTTTGCTUCUCA-3′ [DICER1 AS], the “IRAK1 and IRAK4 phosphorylation” value [10] is reported as “increases IRAK1 and IRAK4 phosphorylation”, the “cleavage activity of Caspase-1 (Caspalux)” value [11] is reported as “increases cleavage activity of Caspase-1” and the DICER1 abundance [12] is reported as “reduces DICER1”.
